Laboratory results from ChEMBL document CHEMBL1201862, “PubChem BioAssay data set” (2004).
The source made the active and inactive calls.

Tests used:
[1] = biological target: T1, Leucine aminopeptidase (Plasmodium falciparum 3D7, UniProt Q8IL11); experiment: P. falciparum M17LAP inhibitors, primary screen, biochemical, fluorogenic H-Leu-NHMec substrate, 1536-well (AID 1619); format: functional
T1 sequence (Q8IL11 whole entry): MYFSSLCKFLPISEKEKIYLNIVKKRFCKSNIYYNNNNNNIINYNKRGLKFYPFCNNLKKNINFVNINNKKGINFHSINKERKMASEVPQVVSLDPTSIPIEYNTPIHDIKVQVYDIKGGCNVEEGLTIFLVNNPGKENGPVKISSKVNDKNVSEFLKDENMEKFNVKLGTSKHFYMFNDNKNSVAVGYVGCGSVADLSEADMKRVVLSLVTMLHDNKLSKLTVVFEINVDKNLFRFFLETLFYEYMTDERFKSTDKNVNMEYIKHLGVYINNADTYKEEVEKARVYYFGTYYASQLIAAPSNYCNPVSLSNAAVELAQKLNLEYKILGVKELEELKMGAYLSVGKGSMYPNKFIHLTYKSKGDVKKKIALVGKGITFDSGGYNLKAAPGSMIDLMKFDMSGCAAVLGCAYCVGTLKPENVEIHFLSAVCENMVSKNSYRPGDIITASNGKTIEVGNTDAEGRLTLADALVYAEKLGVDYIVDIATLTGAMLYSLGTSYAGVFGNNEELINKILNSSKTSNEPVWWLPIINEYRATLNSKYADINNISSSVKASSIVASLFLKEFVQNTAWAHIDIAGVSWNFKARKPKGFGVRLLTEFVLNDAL

[2] = cells; format: functional, cell-based
[3] = cells; format: functional, cell-based; remark: listed apart in the source
[4] = biological target: DNA dC->dU-editing enzyme APOBEC-3G (Homo sapiens, UniProt Q9HC16); experiment: Dose Response confirmation of small molecule APOBEC3G DNA Deaminase Inhibitors via a fluorescence-based single-stranded DNA deaminase assay. [Related pubchem assays (depositor defined):AID493012, AID493028]; format: functional
[5] = biological target: ORF 73 (Human herpesvirus 8, UniProt O40947); experiment: KSHV LANA DNA-binding disruption – biochemical, fluorescence polarization, cherry-picked samples, dose response (AID 504725); set-up: species or system Human gammaherpesvirus 8;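 also: fluorescence polarization of a labeled DNA duplex reporting LANA DNA binding; potency is for inhibitors that block LANA binding to the DNA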
[6] = biological target: T2, Carboxy-terminal domain RNA polymerase II polypeptide A small phosphatase 1 (Homo sapiens, UniProt Q9GZU7); experiment: CTDSP1 inhibitors, concentration-response, biochemical, absorbance readout, ultra-high-throughput screen actives (AID 540297); format: functional
T2 sequence (Q9GZU7 whole entry): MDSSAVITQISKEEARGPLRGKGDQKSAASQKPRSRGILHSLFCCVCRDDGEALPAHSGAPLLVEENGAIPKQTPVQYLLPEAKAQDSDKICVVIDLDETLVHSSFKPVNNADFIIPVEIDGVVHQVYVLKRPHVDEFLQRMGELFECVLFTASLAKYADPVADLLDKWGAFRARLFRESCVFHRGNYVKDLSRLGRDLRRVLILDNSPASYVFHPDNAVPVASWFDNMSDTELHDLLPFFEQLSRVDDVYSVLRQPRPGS

[7] = biological target: DNA (cytosine-5)-methyltransferase 1 (Homo sapiens, UniProt P26358); experiment: inhibition of DNA methylation by DNMT1 – biochemical, fluorescent molecular beacon, confirmation (AID 602386); format: functional
[8] = biological target: T3, Long-chain-fatty-acid--AMP ligase FadD28 (Mycobacterium tuberculosis, UniProt P9WQ59); experiment: Fluorescence polarization aasay to screen for inhibitors that compete for the binding of FadD28 to a bisubstrate Measured in Biochemical System Using Plate Reader - 2147-01_Inhibitor_Dose_CherryPick_Activity.; format: functional, Mycobacterium tuberculosis H37Rv
T3 sequence (P9WQ59 whole entry): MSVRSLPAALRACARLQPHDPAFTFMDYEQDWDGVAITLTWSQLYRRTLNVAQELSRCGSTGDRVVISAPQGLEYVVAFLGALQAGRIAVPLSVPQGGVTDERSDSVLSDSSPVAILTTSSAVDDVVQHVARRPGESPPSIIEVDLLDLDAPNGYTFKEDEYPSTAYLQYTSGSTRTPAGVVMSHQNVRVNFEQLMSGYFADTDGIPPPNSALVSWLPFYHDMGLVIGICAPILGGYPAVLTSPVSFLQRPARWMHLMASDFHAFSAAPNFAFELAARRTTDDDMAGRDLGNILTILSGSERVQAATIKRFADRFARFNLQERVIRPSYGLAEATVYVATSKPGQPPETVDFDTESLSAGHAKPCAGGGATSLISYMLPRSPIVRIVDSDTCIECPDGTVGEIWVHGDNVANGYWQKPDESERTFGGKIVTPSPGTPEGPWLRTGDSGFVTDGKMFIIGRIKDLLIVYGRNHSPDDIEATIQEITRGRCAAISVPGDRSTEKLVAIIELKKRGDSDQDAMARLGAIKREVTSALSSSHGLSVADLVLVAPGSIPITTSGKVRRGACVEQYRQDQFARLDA

[9] = biological target: Voltage-dependent T-type calcium channel subunit alpha-1H (Homo sapiens, UniProt O95180); format: functional;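 also: channel activity triggered by adding a high calcium stimulation buffer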
[10] = Luminescence Cell-Based Dose Retest to Confirm Inhibitors of Cancer Stem Cells. [Related pubchem assays (depositor defined):AID2717, AID2721]; format: functional; conditions: Homo sapiens
[11] = system: BJ; experiment: BJ-TERT fibroblast viability loss – cell-based, RAS-independent, luminescence, dose response (AID 1933); format: functional; conditions: Homo sapiens
[12] = system: BJ; experiment: cells; format: functional, cell-based; conditions: Homo sapiens
[13] = Trypanosoma cruzi growth suppression in host cells – NIH3T3 host cells, beta-gal luminescence, confirmation (AID 2044); format: functional, cell-based;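 also: intracellular parasites grown in NIH/3T3 mouse fibroblasts as host cells; luminescent beta-galactosidase reporter signal from transgenic T. cruzi replicating inside host cells; inhibitors lower the luminescence signal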
[14] = NIH3T3 cell viability loss – ATP luminescence, mouse fibroblasts, counter-screen, dose response (AID 2010); format: functional, cell-based;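 also: cells exposed to compound for about 90 hours before reading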
[15] = system: BJ; experiment: BJ-TERT-LT-ST fibroblast viability loss – cell-based, RAS-independent, luminescence, dose response (AID 1935); format: functional; conditions: Homo sapiens;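 also: BJ fibroblasts immortalized with TERT plus LT and ST oncogenes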
[16] = DRD fibroblast viability loss – cell-based, non-viral oncogenic, luminescence, dose response (AID 1934); format: functional; conditions: Homo sapiens
[17] = biological target: T4, Hexokinase HKDC1 (Homo sapiens, UniProt Q2TB90); experiment: inhibition of HKDC1 glucose phosphorylation – biochemical, W721R variant, dose response (AID 504729); format: functional
T4 sequence (Q2TB90 whole entry): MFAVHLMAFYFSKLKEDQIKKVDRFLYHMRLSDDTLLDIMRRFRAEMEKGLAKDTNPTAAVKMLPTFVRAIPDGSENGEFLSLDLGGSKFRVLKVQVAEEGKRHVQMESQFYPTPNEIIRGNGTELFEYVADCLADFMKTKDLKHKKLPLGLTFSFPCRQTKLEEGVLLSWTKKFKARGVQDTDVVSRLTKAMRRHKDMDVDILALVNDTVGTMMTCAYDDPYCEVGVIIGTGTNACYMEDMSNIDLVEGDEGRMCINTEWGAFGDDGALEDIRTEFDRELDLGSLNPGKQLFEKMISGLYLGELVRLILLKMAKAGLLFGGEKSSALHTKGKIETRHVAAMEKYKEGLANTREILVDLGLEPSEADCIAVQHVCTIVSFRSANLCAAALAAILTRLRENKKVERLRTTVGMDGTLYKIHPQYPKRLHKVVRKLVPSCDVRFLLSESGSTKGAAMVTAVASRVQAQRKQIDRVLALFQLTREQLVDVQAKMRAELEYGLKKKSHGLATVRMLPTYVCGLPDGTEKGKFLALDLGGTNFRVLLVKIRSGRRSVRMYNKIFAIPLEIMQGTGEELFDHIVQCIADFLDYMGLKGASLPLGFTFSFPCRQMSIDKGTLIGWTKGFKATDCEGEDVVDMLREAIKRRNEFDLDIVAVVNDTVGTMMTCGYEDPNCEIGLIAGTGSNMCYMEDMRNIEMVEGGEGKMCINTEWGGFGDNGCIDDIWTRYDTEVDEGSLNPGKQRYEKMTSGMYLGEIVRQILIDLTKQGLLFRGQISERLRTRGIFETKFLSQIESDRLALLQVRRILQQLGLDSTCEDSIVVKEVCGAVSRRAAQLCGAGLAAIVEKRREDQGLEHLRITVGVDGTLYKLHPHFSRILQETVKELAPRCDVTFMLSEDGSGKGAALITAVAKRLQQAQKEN

[18] = reduction of Shn3 3'UTR-driven luciferase in osteoblasts – cell-based, Clone20 osteoblasts, firefly luciferase, cherry-picked, dose response (AID 624132); format: functional;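 also: firefly luciferase luminescence from reporter carrying the Shn3 3'UTR in osteoblasts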
[19] = loss of viability in HepG2 cells – cell-based, CellTiter-Glo, cherry-picked, cytotoxicity control for Shn3 inhibitor project, dose response (AID 624134); format: functional
[20] = non-specific 3'UTR reporter inhibition in Clone20-Shn3RL – cell-based, Renilla luciferase, cherry-picked, counter-screen for Shn3 inhibitor project, dose response (AID 624133); format: functional
[21] = biological target: T5, Histone-lysine N-methyltransferase NSD2 (Homo sapiens, UniProt O96028); format: biochemical
T5 sequence (O96028 whole entry): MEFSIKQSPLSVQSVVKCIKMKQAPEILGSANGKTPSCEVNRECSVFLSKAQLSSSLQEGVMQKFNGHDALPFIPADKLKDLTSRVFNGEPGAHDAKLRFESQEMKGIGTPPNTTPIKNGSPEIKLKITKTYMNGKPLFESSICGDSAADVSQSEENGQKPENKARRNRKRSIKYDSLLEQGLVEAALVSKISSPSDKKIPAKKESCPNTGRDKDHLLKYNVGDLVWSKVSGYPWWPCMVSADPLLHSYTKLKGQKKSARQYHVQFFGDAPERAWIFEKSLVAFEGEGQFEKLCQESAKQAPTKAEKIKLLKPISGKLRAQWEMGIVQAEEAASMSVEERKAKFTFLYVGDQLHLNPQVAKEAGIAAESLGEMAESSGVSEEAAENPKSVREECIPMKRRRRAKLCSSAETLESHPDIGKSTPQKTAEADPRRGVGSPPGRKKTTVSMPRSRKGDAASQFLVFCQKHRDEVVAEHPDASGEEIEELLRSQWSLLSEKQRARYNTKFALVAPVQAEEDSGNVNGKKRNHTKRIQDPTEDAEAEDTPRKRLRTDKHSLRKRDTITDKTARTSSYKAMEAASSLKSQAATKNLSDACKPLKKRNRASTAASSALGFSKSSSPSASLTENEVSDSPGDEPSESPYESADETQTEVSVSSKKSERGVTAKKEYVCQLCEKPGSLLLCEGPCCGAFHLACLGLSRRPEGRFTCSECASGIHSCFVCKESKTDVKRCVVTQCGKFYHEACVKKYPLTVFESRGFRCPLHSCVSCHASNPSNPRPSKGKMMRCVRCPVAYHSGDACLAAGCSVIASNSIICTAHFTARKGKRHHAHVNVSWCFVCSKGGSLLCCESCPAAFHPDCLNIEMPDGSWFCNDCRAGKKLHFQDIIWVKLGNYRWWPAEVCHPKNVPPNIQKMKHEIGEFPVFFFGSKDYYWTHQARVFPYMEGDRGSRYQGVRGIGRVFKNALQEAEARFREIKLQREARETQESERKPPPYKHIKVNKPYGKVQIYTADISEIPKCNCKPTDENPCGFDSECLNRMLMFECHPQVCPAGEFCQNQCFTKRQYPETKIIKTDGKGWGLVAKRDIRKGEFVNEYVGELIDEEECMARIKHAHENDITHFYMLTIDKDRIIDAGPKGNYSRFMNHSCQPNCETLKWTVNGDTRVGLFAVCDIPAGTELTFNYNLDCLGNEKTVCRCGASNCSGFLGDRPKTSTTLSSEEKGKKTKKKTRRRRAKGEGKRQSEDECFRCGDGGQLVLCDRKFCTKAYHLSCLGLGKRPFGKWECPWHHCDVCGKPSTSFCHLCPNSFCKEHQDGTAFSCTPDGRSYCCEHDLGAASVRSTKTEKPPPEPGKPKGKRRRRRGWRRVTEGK

[22] = biological target: Trypsin (Sus scrofa, UniProt P00761); experiment: trypsin protease activity blockade – biochemical, quenched peptide fluorescence, cherry-pick, selectivity assay for Rce1 protease inhibitor project, dose response (AID 488789)
[23] = biological target: T6, CAAX prenyl protease 2 (Saccharomyces cerevisiae S288c, UniProt Q03530); format: biochemical
T6 sequence (Q03530 whole entry): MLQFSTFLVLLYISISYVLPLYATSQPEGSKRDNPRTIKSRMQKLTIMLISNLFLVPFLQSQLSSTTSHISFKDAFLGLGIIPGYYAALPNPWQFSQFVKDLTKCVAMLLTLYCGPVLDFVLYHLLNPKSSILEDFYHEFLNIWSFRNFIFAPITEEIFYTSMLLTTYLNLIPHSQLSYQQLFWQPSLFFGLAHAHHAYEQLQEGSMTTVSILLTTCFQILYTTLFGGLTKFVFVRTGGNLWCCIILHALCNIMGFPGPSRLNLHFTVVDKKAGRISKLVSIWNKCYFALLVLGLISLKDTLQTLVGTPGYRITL

Sequence of Voltage-dependent T-type calcium channel subunit alpha-1H (O95180 whole entry): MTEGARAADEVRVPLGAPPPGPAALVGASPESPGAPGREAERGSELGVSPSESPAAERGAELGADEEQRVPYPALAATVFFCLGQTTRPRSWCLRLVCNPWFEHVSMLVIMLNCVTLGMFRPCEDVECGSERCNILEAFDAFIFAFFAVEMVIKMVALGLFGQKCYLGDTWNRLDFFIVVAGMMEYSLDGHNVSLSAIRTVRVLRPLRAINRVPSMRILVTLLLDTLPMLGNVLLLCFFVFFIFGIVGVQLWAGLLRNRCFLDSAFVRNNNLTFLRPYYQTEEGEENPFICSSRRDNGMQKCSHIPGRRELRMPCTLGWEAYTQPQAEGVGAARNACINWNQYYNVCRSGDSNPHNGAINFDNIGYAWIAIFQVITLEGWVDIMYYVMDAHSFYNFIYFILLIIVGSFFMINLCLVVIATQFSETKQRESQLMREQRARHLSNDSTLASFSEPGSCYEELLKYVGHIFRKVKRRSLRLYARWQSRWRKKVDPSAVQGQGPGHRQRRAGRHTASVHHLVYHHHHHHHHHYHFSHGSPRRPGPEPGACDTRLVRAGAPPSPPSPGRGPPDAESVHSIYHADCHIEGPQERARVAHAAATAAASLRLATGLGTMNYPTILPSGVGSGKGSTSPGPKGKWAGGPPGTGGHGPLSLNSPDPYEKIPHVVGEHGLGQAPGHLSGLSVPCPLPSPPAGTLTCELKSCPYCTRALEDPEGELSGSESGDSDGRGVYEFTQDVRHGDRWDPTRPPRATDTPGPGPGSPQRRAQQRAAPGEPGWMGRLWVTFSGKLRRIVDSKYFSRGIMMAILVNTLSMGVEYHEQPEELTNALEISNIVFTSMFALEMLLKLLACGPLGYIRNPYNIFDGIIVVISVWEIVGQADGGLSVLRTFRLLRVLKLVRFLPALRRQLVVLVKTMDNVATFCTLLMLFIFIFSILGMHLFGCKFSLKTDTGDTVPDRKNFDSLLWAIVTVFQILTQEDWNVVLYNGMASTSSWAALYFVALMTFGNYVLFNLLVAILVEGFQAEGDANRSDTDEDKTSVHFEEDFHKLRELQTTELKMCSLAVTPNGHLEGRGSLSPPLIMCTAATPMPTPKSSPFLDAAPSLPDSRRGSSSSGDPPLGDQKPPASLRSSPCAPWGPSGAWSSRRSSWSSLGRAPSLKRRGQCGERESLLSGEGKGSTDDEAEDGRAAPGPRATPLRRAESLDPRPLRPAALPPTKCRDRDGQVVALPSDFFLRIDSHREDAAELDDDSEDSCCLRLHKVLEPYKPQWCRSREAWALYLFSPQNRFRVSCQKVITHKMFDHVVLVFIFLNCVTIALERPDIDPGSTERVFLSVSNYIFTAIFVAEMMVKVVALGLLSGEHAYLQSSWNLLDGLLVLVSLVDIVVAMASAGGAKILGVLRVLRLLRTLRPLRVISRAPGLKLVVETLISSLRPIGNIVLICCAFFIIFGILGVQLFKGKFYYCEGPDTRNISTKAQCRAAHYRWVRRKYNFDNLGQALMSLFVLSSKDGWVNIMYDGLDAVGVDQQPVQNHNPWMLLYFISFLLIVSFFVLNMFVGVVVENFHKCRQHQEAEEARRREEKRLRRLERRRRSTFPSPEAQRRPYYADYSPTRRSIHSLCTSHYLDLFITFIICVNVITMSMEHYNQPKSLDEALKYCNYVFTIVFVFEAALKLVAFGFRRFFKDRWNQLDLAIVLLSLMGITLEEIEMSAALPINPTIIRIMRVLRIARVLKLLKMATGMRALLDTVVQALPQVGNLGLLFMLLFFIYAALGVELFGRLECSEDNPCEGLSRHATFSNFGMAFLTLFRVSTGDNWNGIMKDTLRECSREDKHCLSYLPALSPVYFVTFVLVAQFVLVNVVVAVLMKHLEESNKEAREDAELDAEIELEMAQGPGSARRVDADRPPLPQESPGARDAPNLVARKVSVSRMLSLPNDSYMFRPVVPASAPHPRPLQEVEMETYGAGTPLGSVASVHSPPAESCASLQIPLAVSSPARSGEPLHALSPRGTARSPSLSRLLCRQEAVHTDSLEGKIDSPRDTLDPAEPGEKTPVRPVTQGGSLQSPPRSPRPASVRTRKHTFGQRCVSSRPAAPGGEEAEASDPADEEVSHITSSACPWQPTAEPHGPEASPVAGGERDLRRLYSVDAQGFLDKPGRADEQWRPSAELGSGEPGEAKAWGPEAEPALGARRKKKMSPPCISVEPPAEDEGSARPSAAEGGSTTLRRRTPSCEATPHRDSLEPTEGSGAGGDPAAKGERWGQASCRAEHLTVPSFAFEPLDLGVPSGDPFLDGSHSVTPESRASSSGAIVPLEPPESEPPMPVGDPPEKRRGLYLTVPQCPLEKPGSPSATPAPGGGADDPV
Sequence of DNA (cytosine-5)-methyltransferase 1 (P26358 whole entry): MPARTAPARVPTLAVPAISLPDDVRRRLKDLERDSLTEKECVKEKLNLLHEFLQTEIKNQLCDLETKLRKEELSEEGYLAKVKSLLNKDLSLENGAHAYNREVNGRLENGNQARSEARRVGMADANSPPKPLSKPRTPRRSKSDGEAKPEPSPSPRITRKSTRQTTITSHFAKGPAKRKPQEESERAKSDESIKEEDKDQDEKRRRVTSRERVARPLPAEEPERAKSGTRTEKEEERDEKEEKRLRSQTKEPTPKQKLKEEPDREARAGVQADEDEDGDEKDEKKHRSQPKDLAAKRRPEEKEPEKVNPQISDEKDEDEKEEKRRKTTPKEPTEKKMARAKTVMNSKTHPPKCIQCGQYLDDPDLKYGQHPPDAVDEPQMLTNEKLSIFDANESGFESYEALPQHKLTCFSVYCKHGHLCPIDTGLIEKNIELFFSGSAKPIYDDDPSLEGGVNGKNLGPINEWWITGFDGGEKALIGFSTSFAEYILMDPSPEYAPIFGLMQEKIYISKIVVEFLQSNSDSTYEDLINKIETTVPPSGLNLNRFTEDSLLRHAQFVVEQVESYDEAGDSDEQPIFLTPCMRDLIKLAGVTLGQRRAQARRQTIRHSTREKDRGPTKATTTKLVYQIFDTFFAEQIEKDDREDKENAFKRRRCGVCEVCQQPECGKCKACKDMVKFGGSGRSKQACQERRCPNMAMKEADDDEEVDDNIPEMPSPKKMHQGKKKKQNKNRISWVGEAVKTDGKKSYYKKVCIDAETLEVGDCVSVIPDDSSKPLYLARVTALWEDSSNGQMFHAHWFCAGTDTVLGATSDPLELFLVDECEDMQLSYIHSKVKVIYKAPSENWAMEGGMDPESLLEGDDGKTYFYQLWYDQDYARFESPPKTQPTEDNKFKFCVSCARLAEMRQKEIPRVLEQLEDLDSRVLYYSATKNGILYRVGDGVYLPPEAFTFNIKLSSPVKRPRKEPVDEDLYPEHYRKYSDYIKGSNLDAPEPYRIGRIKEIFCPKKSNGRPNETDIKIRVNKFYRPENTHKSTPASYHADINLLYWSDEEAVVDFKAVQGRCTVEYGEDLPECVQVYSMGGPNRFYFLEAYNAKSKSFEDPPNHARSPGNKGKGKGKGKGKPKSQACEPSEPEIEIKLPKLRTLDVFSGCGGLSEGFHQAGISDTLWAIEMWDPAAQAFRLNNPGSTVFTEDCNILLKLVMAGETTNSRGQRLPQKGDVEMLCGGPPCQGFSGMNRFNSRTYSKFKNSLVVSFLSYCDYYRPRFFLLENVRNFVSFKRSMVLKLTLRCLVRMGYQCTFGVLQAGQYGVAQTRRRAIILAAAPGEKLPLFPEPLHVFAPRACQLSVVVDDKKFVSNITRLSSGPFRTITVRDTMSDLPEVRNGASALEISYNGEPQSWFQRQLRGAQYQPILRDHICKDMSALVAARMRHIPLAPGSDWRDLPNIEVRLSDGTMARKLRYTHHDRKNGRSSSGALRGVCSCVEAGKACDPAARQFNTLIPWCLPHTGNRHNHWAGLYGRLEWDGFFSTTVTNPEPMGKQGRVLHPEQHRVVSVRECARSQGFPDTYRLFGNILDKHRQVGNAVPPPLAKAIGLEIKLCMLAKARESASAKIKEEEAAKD
Sequence of ORF 73 (O40947 whole entry, the tested form may be a part): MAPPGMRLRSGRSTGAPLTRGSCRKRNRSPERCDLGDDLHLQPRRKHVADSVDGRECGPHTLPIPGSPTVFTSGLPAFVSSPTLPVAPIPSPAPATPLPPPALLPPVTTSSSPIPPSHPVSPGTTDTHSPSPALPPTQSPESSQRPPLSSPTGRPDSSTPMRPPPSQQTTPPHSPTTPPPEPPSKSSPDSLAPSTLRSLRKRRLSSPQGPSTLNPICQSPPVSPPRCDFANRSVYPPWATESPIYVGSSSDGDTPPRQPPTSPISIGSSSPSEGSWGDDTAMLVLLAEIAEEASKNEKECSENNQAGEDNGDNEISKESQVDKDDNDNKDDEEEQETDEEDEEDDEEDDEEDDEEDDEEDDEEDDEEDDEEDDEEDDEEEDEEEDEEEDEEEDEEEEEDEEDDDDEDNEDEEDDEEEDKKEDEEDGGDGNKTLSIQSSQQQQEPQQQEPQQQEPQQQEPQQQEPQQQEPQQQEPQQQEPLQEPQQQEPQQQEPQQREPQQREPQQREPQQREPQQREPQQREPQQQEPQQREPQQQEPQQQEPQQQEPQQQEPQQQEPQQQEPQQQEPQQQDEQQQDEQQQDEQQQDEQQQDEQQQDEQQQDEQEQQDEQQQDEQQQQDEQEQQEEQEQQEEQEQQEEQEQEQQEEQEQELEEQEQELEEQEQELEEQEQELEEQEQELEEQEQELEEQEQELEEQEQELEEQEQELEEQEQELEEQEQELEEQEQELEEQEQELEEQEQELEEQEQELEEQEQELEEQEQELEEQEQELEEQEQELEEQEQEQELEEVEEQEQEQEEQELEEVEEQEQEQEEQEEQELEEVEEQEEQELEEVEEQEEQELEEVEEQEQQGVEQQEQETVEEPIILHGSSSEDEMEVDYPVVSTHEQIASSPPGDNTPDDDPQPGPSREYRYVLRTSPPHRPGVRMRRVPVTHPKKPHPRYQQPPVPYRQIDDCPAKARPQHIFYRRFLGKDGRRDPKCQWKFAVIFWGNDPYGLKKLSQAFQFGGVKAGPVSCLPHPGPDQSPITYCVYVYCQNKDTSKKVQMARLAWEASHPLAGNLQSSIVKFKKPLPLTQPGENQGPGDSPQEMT

With `COc1cccc(Nc2nnc(S)s2)c1` the IC50 [1] was 6.54 µM (active), the EC50 [2] was > 350 µM (not active) and the EC50 [3] was > 350 µM (not active). The IC50 [4] was > 100 µM (inactive).

For `Cc1ccccc1NC(=O)CN1C(=O)N/C(=C\c2cccn2-c2cccc(C(=O)O)c2)C1=O`, the AC50 [5] was 74.7 µM (active), the IC50 [6] was 4.42 µM (active) and the IC50 [7] was 6.37 µM (active). For the same molecule, the AC50 [8] was 55.3 µM (active).

With `O=C(NC1CCCC1)C(c1ccccc1)N(Cc1ccc2c(c1)OCO2)C(=O)Cc1cccs1` (stereo unspecified) the EC50 [9] was 1.52 µM (active).

In the case of `COc1ccc(Cn2nnnc2C(C(C)C)N(Cc2ccco2)Cc2cccs2)cc1` (stereo unspecified), the EC50 [9] was 6.56 µM (active) and the AC50 [10] was 2.02 µM (active).

For `CCN(CC)CCNc1cc(C)nc2c1C(=O)C(=O)C=C2N1CCCCC1`, the EC50 [11] was 5.91 µM (inconclusive), the EC50 [2] was > 350 µM (not active) and the EC50 [12] was 10.2 µM (active). For the same molecule, the EC50 [13] was 1.44 µM (active), the EC50 [3] was > 350 µM (not active) and the EC50 [14] was > 60 µM (not active). The EC50 [15] was 8.38 µM (active), the EC50 [16] was 9.47 µM (active) and the IC50 [17] was 13.2 µM (active). The AC50 [18] was 6.61 µM (active), the AC50 [19] was 5.54 µM (active) and the AC50 [20] was 6.45 µM (active). The AC50 [21] was > 20 µM (inactive).

In the case of `CCN(CC)Cc1c(O)ccc2c(=O)c(-c3ccccc3OC)coc12`, the AC50 [22] was 21.4 µM (active) and the AC50 [23] was 13.8 µM (active).
